In US20250223552A1, “METHOD FOR PREPARING T CELLS FOR ADOPTIVE T CELL THERAPY” (ST. JUDE CHILDREN'S RESEARCH HOSPITAL, INC., priority 2022, published 2025):

Assays:
OT-I CD8^+ T cells = test: OT-I CD8+ T cells activated with anti-CD3/CD28 in presence of Arid1a inhibitor, CD62L by flow cytometry; format: cell-based, mouse; details: inhibitor 1 μM during 48 hours activation, drug removed, additional 2 days culture with IL-2; FIG. 1
Description: Data are compiled from at least two independent experiments. Data are shown as mean±s.e.m. *p<0.05; two-tailed unpaired Student's t-test.
Flow Cytometry. Antibodies from Biolegend included APC/Cy7 anti-human CD8α, BV785 anti-human CD45RA, PE anti-human CD62L, APC anti-human CD27, PE/Cy7 anti-human CCR7, BV421 anti-human CD95, BV785 anti-mouse/human CD44, BV510 anti-mouse KLRG1, KIRAVIA Blue 520 anti-mouse CD62L, BV605 anti-mouse CD127, BV650 anti-mouse CX3CR1, APC anti-mouse CD8α, ALEXA FLUOR® 700 fluorescent dye anti-mouse CD45.2, APC anti-mouse CD98; PE anti-mouse CXCR3 (eBioscience); and BUV395 anti-human CD3, BUV805 anti-human CD45RO; BUV496 anti-mouse CD45.1, BUV805 anti-mouse CD8α were acquired from BD Biosciences. For surface markers, cells were stained for 30 minutes at 4° C. in PBS+2% (w/v) bovine serum albumin (BSA). […] Samples were acquired on CYTEK® Aurora or BD LSRII flow cytometer and analyzed with FlowJo software.
Effective adoptive T cell therapy for cancer is critically dependent upon the use of T cells with long-term memory potential (Lugli et al. (2020) Trends Immunol. 41:17-28; Gattinoni et al. (2012) Nat. Rev. Cancer 12:671-684; Klebanoff et al. (2005) Proc. Natl. Acad. Sci. USA 102:9571-9576; Hurton et al. (2016) Proc. Natl. Acad. Sci. USA 113: E7788-E7797). Therefore, it was determined whether manipulation of CBAF can improve anti-tumor therapy. […]

MC38-Ova tumors = test: MC38-Ova tumor growth after adoptive transfer of inhibitor-pretreated OT-I cells; format: in vivo; details: OT-I cells transiently treated with inhibitor during activation, transferred into tumor-bearing mice; FIG. 3
Description: Naïve OT-I CD8^+ T cells were activated with anti-CD3/CD28 in the presence or absence of Arid1a inhibitor for 48 hours followed by expansion for another 4 days. Data are representative of two independent experiments. Data are shown as mean±s.e.m. **p<0.01; two-way ANOVA.
(§1) In Vivo Tumor Transplant Experiment. For B16-Ova and MC38-Ova tumors, 0.5×10^6 tumor cells were injected subcutaneously into naïve mice (7-10 weeks of age). OT-I cells (2×10^6) were transferred i.v. 7 days after tumor injection. Tumors were measured every two days.
(§2) Effective adoptive T cell therapy for cancer is critically dependent upon the use of T cells with long-term memory potential (Lugli et al. (2020) Trends Immunol. 41:17-28; Gattinoni et al. (2012) Nat. Rev. Cancer 12:671-684; Klebanoff et al. (2005) Proc. Natl. Acad. Sci. USA 102:9571-9576; Hurton et al. (2016) Proc. Natl. Acad. Sci. USA 113: E7788-E7797). Therefore, it was determined whether manipulation of CBAF can improve anti-tumor therapy. Accordingly, OT-I cells were transduced with sgRNA for Smarcd2 or control sgRNA, and the transduced cells were transferred into animals that were subsequently infected with Lm-Ova. Animals were then inoculated with B16F10 murine melanoma cells expressing Ova (B16-Ova) at memory phase (day >30 post-infection). Improved control of tumor growth and enhanced survival by the Smarcd2-ablated CD8^+ T cells were observed. […]

B16-Ova tumors = test: B16-Ova tumor growth after adoptive transfer of inhibitor-pretreated OT-I cells; format: in vivo; details: OT-I cells transiently treated with inhibitor during activation, transferred into tumor-bearing mice; FIG. 2
Description: Naïve OT-I CD8^+ T cells were activated with anti-CD3/CD28 in the presence or absence of Arid1a inhibitor for 48 hours followed by expansion for another 4 days. Data are representative of two independent experiments. Data are as shown mean±s.e.m. **p<0.01, ***p<0.001; two-way ANOVA.
as §1
as §2, with “post-infection).” for “post-infection). Improved control of tumor growth and enhanced survival by the Smarcd2-ablated CD8^+ T cells were observed.”

human CD8^+ T cells [1] = test: Persistence of inhibitor-pretreated human CD8+ T cells in NSG mice at day 30 after adoptive transfer; format: in vivo; details: transient treatment during activation; recovered after 30 days; FIG. 9
Description: Naïve human CD8^+ T cells were activated with anti-CD3/CD28 in the presence or absence of Arid1a inhibitor for 48 hours followed by expansion in IL-15 containing medium for another 4 days prior to adoptive transfer. Data are representative of two independent experiments. Data are shown as mean±s.e.m. *p<0.05; two-tailed unpaired Student's t-test.
For human CD8^+ T cell experiments, naïve CD8^+ T cells were activated by human CD3/CD28 T cell activator (StemCell) with or without an Arid1a inhibitor (BRD-K98645985; 1 μM; AOBIOUS or MedChemExpress) for two days and cultured in rhIL-15 (10 ng/ml, Peprotech) containing medium. Activated CD8^+ T cells (3×10^6) were then transferred to NOD scid gamma mice sold under the tradename NSG®. After 30 days, splenic cells were analyzed by flow cytometry.
The effect of the Arid1a inhibitor on the differentiation of activated, human CD8^+ T cells was also analyzed. Human naïve CD8^+ T cells from healthy donors were enriched and stimulated with anti-CD3/CD28, following by culturing in IL-15 or IL-2, two cytokines that respectively promote in vitro TMEM-like and TEFF-like cell formation (Buck et al. (2016) Cell 166:63-76; Mitchell et al. (2010) J. Immunol. 184:6719-6730). Arid1a inhibitor was added during different periods of culture. […] After 30 days, T cells were recovered and analyzed.

[2] = system: B7-H3-expressing GL261 tumor cells; test: Repeat stimulation assay of B7-H3 CAR-T cells with GL261 tumor cells; format: cell-based, murine; details: CAR-T:tumor 3:1, counted every 3 days, FIG. 4
Description: (§3) T cells were transduced with B7-H3 CAR or a control CAR containing only the single-chain variable fragment (scFv) and transmembrane domain (B7-H3 STOP CAR) and co-cultured with GL261 tumor cells at the ratio of 3:1. Cells numbers were assessed every 3 days. Data are compiled from at least two independent experiments. Data are shown as mean±s.e.m. ***p<0.001; two-way ANOVA.
(§4) Repeat Stimulation Assay. For repeat stimulation assays, 3×10^5 tumor cells (GL261, F420) were plated in a 24-well plate and allowed to adhere for 4-6 hours at 37° C., CAR-T cells (1×10^6) were then added to the wells containing tumor cells without any exogenous cytokines (tumor: CAR-T cell ratio=1:3). After 3 days of co-culture, CAR-T cells were lifted by gentle pipetting to avoid disrupting adherent tumor cells, and the number of T cells was determined using a hemocytometer. Stimulations and cell counts were repeated every 3 days with the same tumor cells.
(§5) Currently the most widely used adoptive T cell therapy employs the use of CARs. However, the use of CAR-T cells for the treatment of solid tumors remains challenging (Lim & June whether CAR-T cell (2017) Cell 168:724-740). […] The ability of B7-H3 CAR-T cells to control the growth of F420 cells was then assessed in vivo.

F420 tumor = test: F420 tumor-bearing mice treated with B7-H3 CAR-T cells pre-treated with Arid1a inhibitor; format: in vivo
Description: Data are representative of two independent experiments. Data are shown as mean±s.e.m. *p<0.05, ***p<0.001; two-way ANOVA.
Data are representative of two independent experiments. Log-rank (Mantel-Cox) test was performed for comparing survival curves.
For CAR-T tumor models, the murine osteosarcoma cell line F420 was derived from singly floxed p53+/F-Col2.3 transgenic mice (Zhao et al. (2015) Oncogene 34:5069-5079); 0.5×10^6 F420 cells were injected subcutaneously into naïve mice. Seven days after tumor transplant, 5×10^6 B7-H3 CAR-T cells were transferred i.v. without lymphodepleting chemotherapy and tumor size was measured every two days.
Currently the most widely used adoptive T cell therapy employs the use of CARs. However, the use of CAR-T cells for the treatment of solid tumors remains challenging (Lim & June whether CAR-T cell (2017) Cell 168:724-740). To examine function is enhanced by acute Arid1a inhibition, a CAR targeting murine B7-H3 (Haydar et al. (2021) Neuro-Oncol. 23:999-1011) was used in two B7-H3-positive cell lines, murine osteosarcoma F420 (Zhao et al. (2015) Oncogene 34:5069-5079; Kenneth et al. (2021) Mol. Ther. 29:326-326) and glioma GL261 (Haydar et al. (2021) Neuro-Oncol. 23:999-1011). Murine T cells were activated for 2 days in the presence or absence of the Arid1a inhibitor, followed by retroviral transduction of the B7-H3 CAR to generate CAR-T cells. […] The ability of B7-H3 CAR-T cells to control the growth of F420 cells was then assessed in vivo.

[3] = system: B7-H3-expressing F420 tumor cells; test: Repeat stimulation assay of B7-H3 CAR-T cells with F420 tumor cells; format: cell-based, murine; details: CAR-T:tumor 3:1, counted every 3 days, FIG. 5
Description: as §3, with “scFv” for “single-chain variable fragment (scFv)”, “F420” for “GL261”, “*p<0.05;” for “***p<0.001;”
as §4, §5

murine B7-H3 CAR-T cells = test: Phenotype of B7-H3 CAR-T cells generated from T cells transiently treated with Arid1a inhibitor; format: cell-based; details: T cells activated 2 days with inhibitor, B7-H3 CAR transduction, additional 6 days culture
Description: Murine CAR-T cells were generated as described before (Haydar et al. (2021) Neuro-Oncol. 23:999-1011) with modification. Naïve CD8^+ T cells from 6-8 weeks old CD45.1^+ mice were activated with plate bound anti-CD3ε (1 μg/ml, Bio-X-Cell), anti-CD28 (2 μg/ml, Bio-X-Cell) and 50 U/ml rhIL-2 (Peprotech). On day 2 post-activation, CD8^+ T cells were transduced with retrovirus expressing B7-H3-CAR or control CAR on recombinant human fibronectin sold under the tradename RETRONECTIN® (Takara)-coated non-tissue culture treated plate in complete RPMI medium supplemented with 50 U/ml rhIL-2. At 48 hours after transduction, CAR-T cells were harvested and expanded in the presence of 10 ng/ml rhIL-15 (Peprotech) for another 3 days and then used d for in vivo and in vitro experiments.
as §5

human CD8^+ T cells [4] = test: Differentiation of activated human naive CD8+ T cells in vitro (TCM, TSCM, TEM markers); format: cell-based; details: treatment during the first 48 hours; anti-CD3/CD28, culture in IL-15 or IL-2; FIG. 8
Description: Naïve human CD8^+ T cells were activated with anti-CD3/CD28 and cultured with IL-15; Arid1a inhibitor was added at the indicated time point (n=6 per group). Data are compiled from at least two independent experiments. Data are representative of two independent experiments. Data shown are as mean±s.e.m. *p<0.05, **p<0.01, ***p<0.001; one-way ANOVA.
Human Naïve CD8^+ T Cell Isolation and Stimulation. Human naive CD8^+ T cells were isolated from apheresis ring obtained from the St. Jude blood donor center. Peripheral blood mononuclear cells (PBMC) were isolated using a density gradient medium sold under the tradename LYMPHOPREP® (StemCell Inc.) following the manufacturer's protocol. Briefly, blood from apheresis ring was mixed with phosphate-buffered saline (PBS) containing 2% fetal bovine serum in 1:1 ratio. The mixture was then layered carefully on a density gradient medium sold under the tradename LYMPHOPREP®. Samples were centrifuged at 4000 rpm for 30 minutes at room temperature without braking. The PBMC layer was aspirated, washed twice with 2% fetal calf serum/PBS before isolation of naïve CD8^+ T cell using the MojoSort Human CD8^+ Naïve T Cell Isolation Kit (Biolegend). Naïve CD8^+ T cells were then stimulated with human T cell activation and expansion reagent sold under the tradename IMMUNOCULT® Human CD3/CD28 T Cell Activator (StemCell Inc.) plus 50 U/ml rhIL-2 or 10 ng/ml rhIL-15 for 2 days and expanded with 50 U/ml rhIL-2 or 10 ng/ml rhIL-15. BRD-K98645985 (1 μM; AOBIOUS or MedChemExpress) was added at the indicated time points. All human studies were in compliance with the Declaration of Helsinki. Blood donors were recruited by the Blood Donor Center at St. Jude Children's Research Hospital. Blood donors provided written consent for research use of their blood products not used in transfusions, which has been reviewed and approved by the Institutional Review Board at St. Jude Children's Research Hospital.
The effect of the Arid1a inhibitor on the differentiation of activated, human CD8^+ T cells was also analyzed. […] After 30 days, T cells were recovered and analyzed.

[5] = day 9 post-transfer, vs vehicle-treated CAR-T cells

Compound: CO[C@H]1CN(C)C(=O)c2cc(NC(=O)NC(C)C)ccc2OC[C@H](C)N(Cc2ccc(-c3ccccn3)cc2)C[C@@H]1C [BRD-K98645985]
- generation of cells with the TCM marker CD62L (OT-I CD8^+ T cells): promoted the generation of cells with the TCM marker CD62L
- control of MC38-Ova tumor growth in vivo by transferred OT-I cells (MC38-Ova tumors): improved the ability of OT-I cells to control
- control of B16-Ova tumor growth in vivo by transferred OT-I cells (B16-Ova tumors): improved the ability of OT-I cells to control
- persistence of activated human T cells in NSG mice (human CD8^+ T cells [1]): enhanced persistence
- propensity to express markers of TCM cells in NSG mice (human CD8^+ T cells [1]): greater propensity to express markers of TCM cells
- expansion of CAR-T cells on repeated stimulation [2]: greater expansion
- tumor control (F420 tumor growth) (F420 tumor; B7-H3 CAR-T cells from transiently inhibitor-treated T cells vs untreated, FIG. 6): markedly enhanced tumor control
- survival of F420 tumor-bearing mice (F420 tumor; B7-H3 CAR-T cells from transiently inhibitor-treated T cells vs untreated, FIG. 7): markedly enhanced
- number of CAR-T cells among tumor infiltrating lymphocytes (F420 tumor; [5]): higher numbers
- proportion of CD62L^+CD44^+ cells among tumor infiltrating CAR-T cells (F420 tumor; [5]): higher proportion of CD62L^+CD44^+ cells
- expansion of CAR-T cells on repeated stimulation [3]: greater expansion
- CAR expression compared with vehicle-treated controls (murine B7-H3 CAR-T cells): no difference in CAR expression
- CD62L expression of CAR-T cells (murine B7-H3 CAR-T cells): high CD62L expression
- generation of cells with markers of T memory stem cells (TSCM, CD45RA^+CCR7^+CD27^+CD95^+) (human CD8^+ T cells [4]): necessary and sufficient to promote the generation
- generation of cells with markers of TCM (CD45RA-CCR7+) (human CD8^+ T cells [4]): necessary and sufficient to promote the generation of cells with markers of TCM
- numbers of cells with markers of effector memory T cells (TEM, CD45RA^+CCR7^−) (human CD8^+ T cells [4]): reduced numbers of cells with markers of effector memory T cells
